In the case of Cc1ccc(C2CCN(C(=O)Nc3ccc4nc(CN5CCCCC5)ccc4c3)CC2)cc1 [Example 64, 4-(4-Methylphenyl)-N-[2-(1-piperidinylmethyl)-6-quinolinyl]-1-piperidinecarboxamide], the melting point was 204 to 205 °C (dec.).
In the case of O=C(Nc1ccc2nc(CN3CCCCC3)ccc2c1)N1CCC(c2ccc(F)cc2)CC1 [Example 65, 4-(4-Fluorophenyl)-N-[2-(1-piperidinylmethyl)-6-quinolinyl]-1-piperidinecarboxamide], the melting point was 203 to 204 °C (dec.).
O=C(Nc1ccc2nc(CN3CCCCC3)ccc2c1)c1ccc(-c2ccc(F)cc2F)nc1 [Example 69, 6-(2,4-Difluorophenyl)-N-[2-(1-piperidinylmethyl)-6-quinolinyl]nicotinamide] showed a melting point of 182 to 183 °C.
In the case of CC1(C)CCCC(C)(C)N1Cc1ccc2cc(NC(=O)c3ccc(-c4ccc(Cl)cc4)nc3)ccc2n1 [Example 72, 6-(4-Chlorophenyl)-N-[2-[(2,2,6,6-tetramethyl-1-piperidinyl)methyl]-6-quinolinyl]nicotinamide], the melting point was 258 to 259 °C.
Work on Cc1ccc(-c2ccc(C(=O)Nc3ccc4nc(CN5C(C)(C)CCCC5(C)C)ccc4c3)cn2)cc1 [Example 73, 6-(4-Methylphenyl)-N-[2-[(2,2,6,6-tetramethyl-1-piperidinyl)methyl]-6-quinolinyl]nicotinamide] yielded a melting point of 246 to 247 °C.
Work on CC1(C)CCCC(C)(C)N1Cc1ccc2cc(NC(=O)N3CCC(c4ccc(Cl)cc4)CC3)ccc2n1 [Example 74, 4-(4-Chlorophenyl)-N-[2-[(2,2,6,6-tetramethyl-1-piperidinyl)methyl]-6-quinolinyl]-1-piperidinecarboxamide] yielded a melting point of 203 to 204 °C.
Molecule Cc1ccc(C2CCN(C(=O)Nc3ccc4nc(CN5C(C)(C)CCCC5(C)C)ccc4c3)CC2)cc1 [Example 75, 4-(4-Methylphenyl)-N-[2-[(2,2,6,6-tetramethyl-1-piperidinyl)methyl]-6-quinolinyl]-1-piperidinecarboxamide] has a melting point of 200 to 202 °C.
In the case of C[C@@H]1CCC[C@H](C)N1Cc1ccc2cc(NC(=O)c3ccc(-c4ccc(F)cc4)cc3)ccc2n1 [Example 79, 4′-Fluoro-N-[2-[(cis-2,6-dimethyl-1-piperidinyl)methyl]-6-quinolinyl][1,1′-biphenyl]-4-carboxamide], the melting point was 187 to 188 °C.
C[C@@H]1CCC[C@H](C)N1Cc1ccc2cc(NC(=O)c3ccc(-c4ccccc4)cc3)ccc2n1 [Example 80, N-[2-[(cis-2,6-Dimethyl-1-piperidinyl)methyl]-6-quinolinyl][1,1′-biphenyl]-4-carboxamide] showed a melting point of 180 to 181 °C.
For Cc1ccc(-c2ccc(C(=O)Nc3ccc4nc(CN5[C@H](C)CCC[C@@H]5C)ccc4c3)cc2)cc1 [Example 81, 4′-Methyl-N-[2-[(cis-2,6-dimethyl-1-piperidinyl)methyl]-6-quinolinyl][1,1′-biphenyl]-4-carboxamide], the melting point was 198 to 199 °C (dec.).
In the case of C[C@@H]1CCC[C@H](C)N1Cc1ccc2cc(NC(=O)c3ccc(-c4ccc(Cl)cc4)nc3)ccc2n1 [Example 83, 6-(4-Chlorophenyl)-N-[2-[(cis-2,6-dimethyl-1-piperidinyl)methyl]-6-quinolinyl]nicotinamide], the melting point was 217 to 219 °C (dec.).
With Cc1ccc(C2CCN(C(=O)Nc3ccc4nc(CN5[C@H](C)CCC[C@@H]5C)ccc4c3)CC2)cc1 [Example 86, 4-(4-Methylphenyl)-N-[2-[(cis-2,6-dimethyl-1-piperidinyl)methyl]-6-quinolinyl]-1-piperidinecarboxamide] the melting point was 177 to 178 °C (dec.).
With CC1=NCCN1Cc1ccc2cc(NC(=O)c3ccc(-c4ccccc4)cc3)ccc2n1 [Example 93, N-[2-[(2-Methyl-4,5-dihydro-1H-imidazol-1-yl)methyl]-6-quinolinyl][1,1′-biphenyl]-4-carboxamide] the melting point was 212 to 220 °C (dec.).
For O=C(Nc1ccc2nc(CN3CCN=C3c3ccccc3)ccc2c1)c1ccc(-c2ccccc2)cc1 [Example 94, N-[2-[(2-Phenyl-4,5-dihydro-1H-imidazol-1-yl)methyl]-6-quinolinyl][1,1′-biphenyl]-4-carboxamide], the melting point was 212 to 216 °C (dec.).
With O=C(Nc1ccc2cc(CN3CCCC3)ccc2c1)N1CCC(c2ccc(F)cc2)CC1 [Example 99, 4-(4-Fluorophenyl)-N-[6-(1-pyrrolidinylmethyl)-2-naphthyl]-1-piperidinecarboxamide] the melting point was 209 to 211 °C.
COc1ccc(C2CCN(C(=O)Nc3ccc4cc(CN5CCCC5)ccc4c3)CC2)cc1 [Example 100, 4-(4-Methoxyphenyl)-N-[6-(1-pyrrolidinylmethyl)-2-naphthyl]-1-piperidinecarboxamide] showed a melting point of 194 to 196 °C.
With O=C(Nc1ccc2cc(CN3CCCC3)ccc2c1)N1CCC(c2ccccc2)CC1 [Example 102, 4-Phenyl-N-[6-(1-pyrrolidinylmethyl)-2-naphthyl]-1-piperidinecarboxamide] the melting point was 193 to 195 °C.
Cc1ccc(C2CCN(C(=O)Nc3ccc4cc(CN5CCCC5)ccc4c3)CC2)cc1 [Example 103, 4-Methylphenyl-N-[6-(1-pyrrolidinylmethyl)-2-naphthyl]-1-piperidinecarboxamide] gave a melting point of 210 to 212 °C.
With O=C(Nc1ccc2nc(CN3CCCCC3c3cccnc3)ccc2c1)c1ccc(-c2ccc(Cl)cc2)cc1 (stereo not shown) [Example 116, 4′-Chloro-N-[2-[[2-(3-pyridinyl)-1-piperidinyl]-methyl]-6-quinolinyl][1,1′-biphenyl]-4-carboxamide] the melting point was 124 to 126 °C (dec.).
Molecule COC[C@@H]1CCCN1Cc1ccc2cc(NC(=O)c3ccc(-c4ccc(Cl)cc4)cc3)ccc2n1 [Example 117, 4′-Chloro-N-[2-[[(2S)-2-(methoxymethyl)pyrrolidinyl]-methyl]-6-quinolinyl][1,1′-biphenyl]-4-carboxamide] has a melting point of 172 to 174 °C.
Work on CC(C)(C)OC(=O)[C@@H]1CCCN1Cc1ccc2cc(NC(=O)c3ccc(-c4ccc(Cl)cc4)cc3)ccc2n1 [Example 118, Tert-butyl (2S)-1-[[6-[[(4′-chloro[1,1′-biphenyl]-4-yl)carbonyl]amino]-2-quinolinyl]methyl]-2-pyrrolidinecarboxylate] yielded a melting point of 163 to 166 °C.
For COc1ccc(C2CCN(C(=O)Nc3ccc4cc(CN5C(C)(C)CCCC5(C)C)ccc4c3)CC2)cc1 [Example 119, 4-(4-Methoxyphenyl)-N-[6-[(2,2,6,6-tetramethyl-1-piperidinyl)methyl]-2-naphthyl]-1-piperidinecarboxamide], the melting point was 164 to 166 °C.
COc1ccc(-c2ccc(C(=O)Nc3ccc4cc(CN5C(C)(C)CCCC5(C)C)ccc4c3)cc2)cc1 [Example 120, 4′-Methoxy-N-[6-[(2,2,6,6-tetramethyl-1-piperidinyl)methyl]-2-naphthyl][1,1′-biphenyl]-4-carboxamide] gave a melting point of 212 to 214 °C.
Molecule CC1(C)CCCC(C)(C)N1Cc1ccc2cc(NC(=O)c3ccc(-c4ccc(F)cc4)cc3)ccc2c1 [Example 121, 4′-Fluoro-N-[6-[(2,2,6,6-tetramethyl-1-piperidinyl)methyl]-2-naphthyl][1,1′-biphenyl]-4-carboxamide] has a melting point of 238 to 241 °C.
With Cc1ccc(-c2ccc(C(=O)Nc3ccc4cc(CN5C(C)(C)CCCC5(C)C)ccc4c3)cc2)cc1 [Example 122, 4′-Methyl-N-[6-[(2,2,6,6-tetramethyl-1-piperidinyl)methyl]-2-naphthyl][1,1′-biphenyl]-4-carboxamide] the melting point was 235 to 237 °C.
